Measured values reported in PubChem BioAssay (NCI).
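1) Cells in 96-well plates. 2) Compound, 48 h, 5 concentrations. 3) Linear interpolation between surrounding doses. 4) Unreached endpoint = highest concentration. TGI marks complete inhibition of growth.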

Key:
Assay in all cases: NCI anticancer screen, dose series, 48 h
OVCAR-8 ovarian = system: OVCAR-8 ovarian
UACC-257 melanoma = system: UACC-257 melanoma
SK-MEL-5 melanoma = system: SK-MEL-5 melanoma
DLD-1 colon = system: DLD-1 colon
TK-10 renal = system: TK-10 renal
HOP-62 NSCLC = system: HOP-62 NSCLC
COLO 205 colon = system: COLO 205 colon
RXF-631 renal = system: RXF-631 renal
ACHN renal = system: ACHN renal
OVCAR-4 ovarian = system: OVCAR-4 ovarian
SR leukemia = system: SR leukemia
DMS 114 small cell lung = system: DMS 114 small cell lung
HOP-18 NSCLC = system: HOP-18 NSCLC
UACC-62 melanoma = system: UACC-62 melanoma
HL-60(TB) leukemia = system: HL-60(TB) leukemia
UO-31 renal = system: UO-31 renal
DMS 273 small cell lung = system: DMS 273 small cell lung
A549 NSCLC = system: A549 NSCLC
HOP-92 NSCLC = system: HOP-92 NSCLC
SK-MEL-28 melanoma = system: SK-MEL-28 melanoma
LOX IMVI melanoma = system: LOX IMVI melanoma
CCRF-CEM leukemia = system: CCRF-CEM leukemia
IGROV1 ovarian = system: IGROV1 ovarian
RPMI-8226 leukemia = system: RPMI-8226 leukemia
SK-OV-3 ovarian = system: SK-OV-3 ovarian
CAKI-1 renal = system: CAKI-1 renal
SF-268 CNS = system: SF-268 CNS
NCI-H460 lung = system: NCI-H460 lung
M19-MEL melanoma = system: M19-MEL melanoma
OVCAR-5 ovarian = system: OVCAR-5 ovarian
HCT-15 colon = system: HCT-15 colon
HCT-116 colon = system: HCT-116 colon
MOLT-4 leukemia = system: MOLT-4 leukemia
SW-620 colon = system: SW-620 colon
M14 melanoma = system: M14 melanoma
KM20L2 colon = system: KM20L2 colon
SF-295 CNS = system: SF-295 CNS
786-0 renal = system: 786-0 renal
SNB-19 CNS = system: SNB-19 CNS
NCI-H23 lung = system: NCI-H23 lung
HT29 colon = system: HT29 colon
MALME-3M melanoma = system: MALME-3M melanoma
U251 CNS = system: U251 CNS
SN12C renal = system: SN12C renal
NCI-H226 lung = system: NCI-H226 lung
OVCAR-3 ovarian = system: OVCAR-3 ovarian
LXFL 529 NSCLC = system: LXFL 529 NSCLC
K-562 leukemia = system: K-562 leukemia
HCC-2998 colon = system: HCC-2998 colon
A498 renal = system: A498 renal
RXF 393 renal = system: RXF 393 renal
EKVX NSCLC = system: EKVX NSCLC
SNB-78 CNS = system: SNB-78 CNS
SNB-75 CNS = system: SNB-75 CNS
XF 498 CNS = system: XF 498 CNS
SK-MEL-2 melanoma = system: SK-MEL-2 melanoma
SF-539 CNS = system: SF-539 CNS
NCI-H522 lung = system: NCI-H522 lung

CCCCCCCCOCC(O)COC(=O)CCCCCCC (stereo not drawn)
TGI (OVCAR-8 ovarian): > 100 µM | TGI (UACC-257 melanoma): > 100 µM | TGI (SK-MEL-5 melanoma): > 100 µM | TGI (DLD-1 colon): > 100 µM | TGI (TK-10 renal): > 100 µM | TGI (HOP-62 NSCLC): > 100 µM | TGI (COLO 205 colon): > 100 µM | TGI (RXF-631 renal): > 100 µM | TGI (ACHN renal): > 100 µM | TGI (OVCAR-4 ovarian): > 100 µM | TGI (SR leukemia): > 100 µM | TGI (DMS 114 small cell lung): > 100 µM | TGI (HOP-18 NSCLC): > 100 µM | TGI (UACC-62 melanoma): > 100 µM | TGI (HL-60(TB) leukemia): 93.9 µM | TGI (UO-31 renal): > 100 µM | TGI (DMS 273 small cell lung): > 100 µM | TGI (A549 NSCLC): > 100 µM | TGI (HOP-92 NSCLC): 82.3 µM | TGI (SK-MEL-28 melanoma): > 100 µM | TGI (LOX IMVI melanoma): > 100 µM | TGI (CCRF-CEM leukemia): 35.7 µM | TGI (IGROV1 ovarian): > 100 µM | TGI (RPMI-8226 leukemia): > 100 µM | TGI (SK-OV-3 ovarian): > 100 µM | TGI (CAKI-1 renal): > 100 µM | TGI (SF-268 CNS): > 100 µM | TGI (NCI-H460 lung): > 100 µM | TGI (M19-MEL melanoma): > 100 µM | TGI (OVCAR-5 ovarian): > 100 µM | TGI (HCT-15 colon): > 100 µM | TGI (HCT-116 colon): > 100 µM | TGI (MOLT-4 leukemia): > 100 µM | TGI (SW-620 colon): > 100 µM | TGI (M14 melanoma): > 100 µM | TGI (KM20L2 colon): > 100 µM | TGI (SF-295 CNS): > 100 µM | TGI (786-0 renal): > 100 µM | TGI (SNB-19 CNS): > 100 µM | TGI (NCI-H23 lung): > 100 µM | TGI (HT29 colon): > 100 µM | TGI (MALME-3M melanoma): > 100 µM | TGI (U251 CNS): > 100 µM | TGI (SN12C renal): > 100 µM | TGI (NCI-H226 lung): > 100 µM | TGI (OVCAR-3 ovarian): 64.8 µM | TGI (LXFL 529 NSCLC): > 100 µM | TGI (K-562 leukemia): > 100 µM | TGI (HCC-2998 colon): > 100 µM | TGI (A498 renal): > 100 µM

OCC(O)C(O)C(O)c1nn(-c2ccc(Cl)cc2)c2nc3cc(Cl)c(Cl)cc3nc12 (stereo not drawn)
TGI (OVCAR-8 ovarian): > 100 µM | TGI (UACC-257 melanoma): > 100 µM | TGI (RXF 393 renal): 72.4 µM | TGI (DLD-1 colon): > 100 µM | TGI (TK-10 renal): > 100 µM | TGI (HOP-62 NSCLC): 71 µM | TGI (COLO 205 colon): > 100 µM | TGI (ACHN renal): > 100 µM | TGI (OVCAR-4 ovarian): > 100 µM | TGI (SR leukemia): > 100 µM | TGI (EKVX NSCLC): 67.9 µM | TGI (DMS 114 small cell lung): > 100 µM | TGI (HOP-18 NSCLC): > 100 µM | TGI (UACC-62 melanoma): > 100 µM | TGI (HL-60(TB) leukemia): > 100 µM | TGI (SNB-78 CNS): 76.9 µM | TGI (UO-31 renal): > 100 µM | TGI (DMS 273 small cell lung): > 100 µM | TGI (A549 NSCLC): > 100 µM | TGI (SK-MEL-28 melanoma): > 100 µM | TGI (LOX IMVI melanoma): > 100 µM | TGI (CCRF-CEM leukemia): > 100 µM | TGI (IGROV1 ovarian): > 100 µM | TGI (SNB-75 CNS): 11.1 µM | TGI (RPMI-8226 leukemia): > 100 µM | TGI (SK-OV-3 ovarian): 58.6 µM | TGI (CAKI-1 renal): > 100 µM | TGI (SF-268 CNS): > 100 µM | TGI (NCI-H460 lung): > 100 µM | TGI (M19-MEL melanoma): > 100 µM | TGI (OVCAR-5 ovarian): > 100 µM | TGI (XF 498 CNS): 27.4 µM | TGI (HCT-116 colon): > 100 µM | TGI (MOLT-4 leukemia): > 100 µM | TGI (SK-MEL-2 melanoma): > 100 µM | TGI (SW-620 colon): > 100 µM | TGI (SF-539 CNS): > 100 µM | TGI (M14 melanoma): > 100 µM | TGI (KM20L2 colon): > 100 µM | TGI (SF-295 CNS): > 100 µM | TGI (786-0 renal): > 100 µM | TGI (SNB-19 CNS): > 100 µM | TGI (NCI-H23 lung): 85.1 µM | TGI (HT29 colon): > 100 µM | TGI (NCI-H522 lung): > 100 µM | TGI (MALME-3M melanoma): 71 µM | TGI (U251 CNS): > 100 µM | TGI (SN12C renal): > 100 µM | TGI (NCI-H226 lung): 58.4 µM | TGI (OVCAR-3 ovarian): > 100 µM | TGI (LXFL 529 NSCLC): > 100 µM | TGI (K-562 leukemia): > 100 µM | TGI (HCC-2998 colon): > 100 µM
